Results from patent US11578077B2, “Spiro-oxazolones” (Hoffmann-La Roche Inc., priority 2013, dated 2023).

molecular target: human V1a receptor (Homo sapiens (Human), UniProt P37288); test: human V1a receptor binding studies (3H-Vasopressin, SPA beads); settings: membranes of HEK293 cells transiently transfected with human V1a receptor, Ki by Cheng-Prusoff
Procedure: The human V1a receptor was cloned by RT-PCR from total human liver RNA. The coding sequence was subcloned in an expression vector after sequencing to confirm the identity of the amplified sequence. […] Cell membranes were prepared from HEK293 cells transiently transfected with the expression vector and grown in 20 liter fermenters with the following protocol.
50 g of cells are re-suspended in 30 ml freshly prepared ice cold Lysis buffer ([…] HEPES. 1 mM EDTA, 10 mM MgCl2 adjusted to pH=7.4+complete cocktail of protease inhibitor (Roche Diagnostics)). Homogenized with Polytron for 1 min and sonicated on ice for 2×2 minutes at 80% intensity (Vibracell sonicator). The preparation is centrifuged 20 min at 500 g at 4° C., the pellet is discarded and the supernatant centrifuged 1 hour at 43'000 g at 4° C. (19'000 rpm). The pellet is re-suspended in 12.5 ml Lysis buffer+12.5 ml Sucrose 20% and homogenized using a Polytron for 1-2 min. The protein concentration is determined by the Bradford method and aliquots are stored at −80° C. until use. For binding studies 60 mg Yttrium silicate SPA beads (Amersham) are mixed with an aliquot of membrane in binding buffer (50 mM Tris, 120 mM NaCl, 5 mM KCl, 2 mM CaCl2, 10 mM MgCl) for 15 minutes with mixing. 50 μl of bead/membrane mixture is then added to each well of a 96 well plate, followed by […] of 4 nM 3H-Vasopressin (American Radiolabeled Chemicals). For total binding measurement 100 μl of binding buffer are added to the respective wells, for non-specific binding 100 μl of […] cold vasopressin and for compound testing 100 μl of a serial dilution of each compound in 2% DMSO. The plate is incubated 1 h at room temperature, centrifuged 1 min at 1000 g and counted on a Packard Top-Count. Non-specific binding counts are subtracted from each well and data is normalized to the maximum specific binding set at 100%. To calculate an IC 50 the curve is fitted using a non-linear regression model (XLfit) and the Ki is calculated using the Cheng-Prussoff equation.

Chain of human V1a receptor (P37288 whole entry): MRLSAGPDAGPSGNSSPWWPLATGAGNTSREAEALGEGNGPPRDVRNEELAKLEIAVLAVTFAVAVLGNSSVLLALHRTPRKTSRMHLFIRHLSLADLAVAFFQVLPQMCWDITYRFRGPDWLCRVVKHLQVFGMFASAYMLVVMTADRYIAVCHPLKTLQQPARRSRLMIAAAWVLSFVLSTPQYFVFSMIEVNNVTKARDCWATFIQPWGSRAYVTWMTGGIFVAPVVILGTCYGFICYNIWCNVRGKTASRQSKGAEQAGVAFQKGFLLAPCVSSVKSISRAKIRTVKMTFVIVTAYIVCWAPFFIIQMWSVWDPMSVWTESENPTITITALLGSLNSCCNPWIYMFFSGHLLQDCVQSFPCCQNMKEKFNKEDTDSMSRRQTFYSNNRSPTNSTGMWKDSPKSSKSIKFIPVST

For `Cc1ccc2c(c1)C[C@]1(C2)OC(N2CCC3(CC2)OC(=O)c2ccccc23)=NC1=O` (stereo in doubt) [Example 24, (−)-1′-[5-methyl-4′-oxo-1,3-dihydro-4′H-spiro[indene-2,5′,-[1,3]oxazol]-2′-yl]-3H-spiro[2-benzofuran-1,4′-piperidin]-3-one], which “pKi hV1a” value is on record?
Its value is 8.6.

Which “pKi hV1a” value does the source give for `O=C1N=C(N2CCC3(CC2)OCc2ccccc23)OC12Cc1ccccc1C2` [Example 1, 2′-(1′H,3H-spiro[2-benzofuran-1,4′-piperidin]-1′-yl)-1,3-dihydro-4′H-spiro[indene-2,5′-[1,3]oxazol]-4′-one] here?
Its value is 9.5.

How did the “pKi hV1a” value turn out when `CC1(C)OC2(CCN(C3=NC(=O)C4(Cc5ccccc5C4)O3)CC2)c2ccccc21` [Example 3, 2′-(3,3-dimethyl-1′H,3H-spiro[2-benzofuran-1,4′-piperidin]-1′-yl)-1,3-dihydro-4′H-spiro[indene-2,5′-[1,3]oxazol]-4′-one] was run?
The value was 9.3.

Which “pKi hV1a” value does the source give for `Cc1cccc2c1COC21CCN(C2=NC(=O)C3(Cc4ccccc4C3)O2)CC1` [Example 4] here?
Its value is 8.2.

For `Cc1cccc2c1C(=O)OC21CCN(C2=NC(=O)C3(Cc4ccccc4C3)O2)CC1` [Example 5, 4-methyl-1′-(4′-oxo-1,3-dihydro-4′H-spiro[indene-2,5′-[1,3]oxazol]-2′-yl)-3H-spiro[2-benzofuran-1,4′-piperidin]-3-one], which “pKi hV1a” value is on record?
Its value is 8.0.

Which “pKi hV1a” value does the source give for `Cc1ccc2c(c1)C(=O)OC21CCN(C2=NC(=O)C3(Cc4ccccc4C3)O2)CC1` [Example 6, 5-methyl-1′-(4′-oxo-1,3-dihydro-4′H-spiro[indene-2,5′-[1,3]oxazol]-2′-yl)-3H-spiro[2-benzofuran-1,4′-piperidin]-3-one] here?
Its value is 8.8.

`Cc1ccc2c(c1)C1(CCN(C3=NC(=O)C4(Cc5ccccc5C4)O3)CC1)OC2=O` [Example 7, 6-methyl-1′-(4′-oxo-1,3-dihydro-4′H-spiro[indene-2,5′-[1,3]oxazol]-2′-yl)-3H-spiro[2-benzofuran-1,4′-piperidin]-3-one] was tested. Which “pKi hV1a” value did it give?
The value was 8.8.

How did the “pKi hV1a” value turn out when `COc1ccc2c(c1)C(=O)OC21CCN(C2=NC(=O)C3(Cc4ccccc4C3)O2)CC1` [Example 8, 5-methoxy-1′-(4′-oxo-1,3-dihydro-4′H-spiro[indene-2,5′-[1,3]oxazol]-2′-yl)-3H-spiro[2-benzofuran-1,4′-piperidin]-3-one] was run?
Its value is 8.5.

How did the “pKi hV1a” value turn out when `O=C1OC2(CCN(C3=NC(=O)C4(Cc5ccccc5C4)O3)CC2)c2ccc(O)cc21` [Example 9, 5-hydroxy-1′-(4′-oxo-1,3-dihydro-4′H-spiro[indene-2,5′-[1,3]oxazol]-2′-yl)-3H-spiro[2-benzofuran-1,4′-piperidin]-3-one] was run?
Its value is 9.7.

With `COc1ccc2c(c1)C1(CCN(C3=NC(=O)C4(Cc5ccccc5C4)O3)CC1)OC2=O` [Example 10, 6-methoxy-1′-(4′-oxo-1,3-dihydro-4′H-spiro[indene-2,5′-[1,3]oxazol]-2′-yl)-3H-spiro[2-benzofuran-1,4′-piperidin]-3-one] as the compound, how does the “pKi hV1a” value read?
Its value is 8.6.

With `COc1cc2c(cc1OC)C1(CCN(C3=NC(=O)C4(Cc5ccccc5C4)O3)CC1)OC2=O` [Example 12, 5,6-dimethoxy-1′-(4′-oxo-1,3-dihydro-4′H-spiro[indene-2,5′-[1,3]oxazol)-2′-yl)-3H-spiro[2-benzofuran-1,4′-piperidin]-3-one] as the compound, how does the “pKi hV1a” value read?
The value was 7.5.

`O=C1OC2(CCN(C3=NC(=O)C4(Cc5ccccc5C4)O3)CC2)c2cc(O)c(O)cc21` [Example 13, 5,6-dihydroxy-1′-(4′-oxo-1,3-dihydro-4′H-spiro[indene-2,5′-[1,3]oxazol]-2′-yl)-3H-spiro[2-benzofuran-1,4′-piperidin]-3-one] was tested. Which “pKi hV1a” value did it give?
Its value is 8.2.

How did the “pKi hV1a” value turn out when `O=C1OC2(CCN(C3=NC(=O)C4(Cc5ccccc5C4)O3)CC2)c2cccc(F)c21` [Example 14, 4-fluoro-1′-(4′-oxo-1,3-dihydro-4′H-spiro[indene-2,5′-[1,3]oxazol]-2′-yl)-3H-spiro[2-benzofuran-1,4′-piperidin]-3-one] was run?
Its value is 8.5.

`O=C1OC2(CCN(C3=NC(=O)C4(Cc5ccccc5C4)O3)CC2)c2ccc(F)cc21` [Example 15, 5-fluoro-1′-(4′-oxo-1,3-dihydro-4′H-spiro[indene-2,5′-[1,3]oxazol]-2′-yl)-3H-spiro[2-benzofuran-1,4′-piperidin]-3-one] was tested. Which “pKi hV1a” value did it give?
Its value is 8.9.

`O=C1OC2(CCN(C3=NC(=O)C4(Cc5ccccc5C4)O3)CC2)c2c(F)cccc21` [Example 16, 7-fluoro-1′-(4′-oxo-1,3-dihydro-4′H-spiro[indene-2,5′-[1,3]oxazol]-2′-yl)-3H-spiro[2-benzofuran-1,4′-piperidin]-3-one] was tested. Which “pKi hV1a” value did it give?
Its value is 8.7.

How did the “pKi hV1a” value turn out when `O=C1OC2(CCN(C3=NC(=O)C4(Cc5ccccc5C4)O3)CC2)c2cc(Cl)ccc21` [Example 17, 6-chloro-1′-(4-oxo-1,3-dihydro-4′H-spiro[indene-2,5′-[1,3]oxazol]-2′-yl)-3H-spiro[2-benzofuran-1,4′-piperidin]-3-one] was run?
The value was 8.6.

How did the “pKi hV1a” value turn out when `O=C1OC2(CCN(C3=NC(=O)C4(Cc5ccccc5C4)O3)CC2)c2ccc(Br)cc21` [Example 18, 5-bromo-1′-(4′-oxo-1,3-dihydro-4′H-spiro[indene-2,5′-[1,3]oxazol]-2′-yl)-3H-spiro[2-benzofuran-1,4′-piperidin]-3-one] was run?
Its value is 8.4.

How did the “pKi hV1a” value turn out when `O=C1N=C(N2CCC3(CC2)OCc2ccccc23)O[C@]12CCc1ccccc12` [Example 19, (−)-2′-(1H,3H-spiro[2-benzofuran-1,4′-piperidin]-1′-yl)-2,3-dihydro-4′H-spiro[indene-1,5′-[1,3]oxazol]-4′-one] was run?
The value was 7.6.

How did the “pKi hV1a” value turn out when `O=C1N=C(N2CCC3(CC2)OCc2ccccc23)O[C@@]12CCc1ccccc12` [Example 20, (+)-2′-(1′H,3H-spiro[2-benzofuran-1,4′-piperidin]-1′-yl)-2,3-dihydro-4′H-spiro[indene-1,5′-[1,3]oxazol]-4′-one] was run?
Its value is 6.6.

`Cc1ccc2c(c1)CC1(C2)OC(N2CCC3(CC2)OCc2ccccc23)=NC1=O` (stereo not drawn) [Example 21, 5-methyl-2′-(1′H,3H-spiro[2-benzofuran-1,4′-piperidin]-1′-yl)-1,3-dihydro-4′H-spiro[indene-2,5′-[1,3]oxazol]-4′-one] was tested. Which “pKi hV1a” value did it give?
The value was 9.1.

Which “pKi hV1a” value does the source give for `Cc1ccc2c(c1)CC1(C2)OC(N2CCC3(CC2)OC(=O)c2ccccc23)=NC1=O` (stereo not drawn) [Example 22, 1′-(5-methyl-4′-oxo-1,3-dihydro-4′H-spiro[indene-2,5′-[1,3]oxazol]-2′-yl)-3H-spiro[2-benzofuran-1,4′-piperidin]-3-one] here?
Its value is 8.9.

With `Cc1ccc2c(c1)C[C@@]1(C2)OC(N2CCC3(CC2)OC(=O)c2ccccc23)=NC1=O` [Example 23, (+)-1′-[5-methyl-4′-oxo-1,3-dihydro-4′H-spiro[indene-2,5′-[1,3]oxazol]-2′-yl]-3H-spiro[2-benzofuran-1,4′-piperidin]-3-one] as the compound, how does the “pKi hV1a” value read?
Its value is 7.3.

How did the “pKi hV1a” value turn out when `Cc1cc2c(cc1C)CC1(C2)OC(N2CCC3(CC2)OCc2ccccc23)=NC1=O` [Example 25, 5,6-dimethyl-2′-(1′H,3H-spiro[2-benzofuran-1,4′-piperidin]-1′-yl)-1,3-dihydro-4′H-spiro[indene-2,5′-[1,3]oxazol]-4′-one] was run?
Its value is 7.1.

For `Cc1cc2c(cc1C)CC1(C2)OC(N2CCC3(CC2)OC(=O)c2ccccc23)=NC1=O` [Example 26, 1′-(5,6-dimethyl-4′-oxo-1,3-dihydro-4′H-spiro[indene-2,5′-[1,3]oxazol)-2′-yl)-3H-spiro[2-benzofuran-1,4′-piperidin]-3-one], which “pKi hV1a” value is on record?
Its value is 6.4.

With `COc1ccc2c(c1)CC1(C2)OC(N2CCC3(CC2)OC(=O)c2ccccc23)=NC1=O` (stereo not drawn) [Example 27, 1′-(5-methoxy-4′-oxo-1,3-dihydro-4′H-spiro[indene-2,5′-[1,3]oxazol]-2′-yl)-3H-spiro[2-benzofuran-1,4′-piperidin]-3-one] as the compound, how does the “pKi hV1a” value read?
Its value is 7.7.

same assay, conditions: membranes of HEK293 cells transiently transfected with human V1a receptor, Ki by Cheng-Prusoff, read-out: pKi hV1a (converted)

`O=C1OC2(CCN(C3=NC(=O)[C@]4(CCc5ccccc5C4)O3)CC2)c2ccccc21` (single isomer, unassigned; enantiomer a) [Example 66, 1′-[4′-oxo-3,4-dihydro-1H,4′H-spiro[naphthalene-2,5′-[1,3]oxazol]-2′-yl]-1′H,3H-spiro[2-benzofuran-1,4′-piperidin]-3-one enantiomer A] was tested. Which Ki did it give?
The Ki was 0.794 nM.

How did the Ki turn out when `O=C1OC2(CCN(C3=NC(=O)[C@@]4(CCc5ccccc5C4)O3)CC2)c2ccccc21` (single isomer, unassigned; enantiomer b) [Example 67, 1′-[4′-oxo-3,4-dihydro-1H,4′H-spiro[naphthalene-2,5′-[1,3]oxazol]-2′-yl]-1′H,3H-spiro[2-benzofuran-1,4′-piperidin]-3-one enantiomer B] was run?
Its Ki is 3.98 nM.
